Measured values from PubChem BioAssay AID330 (DTP/NCI, 2004).
Values joined by “and” are separate entries in the source; they are usually repeats but may differ in a detail not shown here. Equal values may be shown once. Toxic doses and inconclusive results are not listed.

Tested on: P388 leukemia ip, CD2F1 mice, survival T/C
Assay: NCI In Vivo Anticancer Drug Screen. Data for tumor model P388 Leukemia (intraperitoneal) in CD2F1 (CDF1) mice
Conditions: endpoint: median survival time, higher = longer survival
Procedure, shortened: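 Mice carrying the transplanted tumor received test compound or vehicle. Survival was recorded in each group, and the value is the treated-group measurement divided by that of the vehicle-treated control group.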

[1] = dose: 100.0 mg/kg/injection, schedule: Q04DX002 (ip), vehicle: saline
[2] = dose: 50.0 mg/kg/injection, schedule: Q01DX005 (ip), vehicle: Klucel (hydroxypropylcellulose) (HPC)
[3] = dose: 100.0 mg/kg/injection, schedule: Q01DX005 (ip), vehicle: Klucel (hydroxypropylcellulose) (HPC)
[4] = dose: 60.0 mg/kg/injection, schedule: Q01DX005 (ip), vehicle: saline
[5] = dose: 120.0 mg/kg/injection, schedule: Q01DX005 (ip), vehicle: saline
[6] = dose: 50.0 mg/kg/injection, schedule: Q01DX009 (ip), vehicle: saline
[7] = dose: 60.0 mg/kg/injection, schedule: Q01DX005 (ip), vehicle: saline with Tween-80
[8] = dose: 120.0 mg/kg/injection, schedule: Q01DX005 (ip), vehicle: saline with Tween-80
[9] = dose: 2.5 mg/kg/injection, schedule: Q01DX009 (ip), vehicle: saline with Tween-80
[10] = dose: 50.0 mg/kg/injection, schedule: Q01DX009 (ip), vehicle: saline with Tween-80
[11] = dose: 200.0 mg/kg/injection, schedule: Q01DX009 (ip), vehicle: saline with Tween-80
[12] = dose: 25.0 mg/kg/injection, schedule: Q01DX005 (ip), vehicle: saline with Tween-80
[13] = dose: 50.0 mg/kg/injection, schedule: Q01DX005 (ip), vehicle: saline with Tween-80
[14] = dose: 100.0 mg/kg/injection, schedule: Q01DX005 (ip), vehicle: saline with Tween-80
[15] = dose: 200.0 mg/kg/injection, schedule: Q01DX005 (ip), vehicle: saline with Tween-80
[16] = dose: 100.0 mg/kg/injection, schedule: Q01DX009 (ip), vehicle: saline with Tween-80
[17] = dose: 6.25 mg/kg/injection, schedule: Q01DX009 (ip), vehicle: saline
[18] = dose: 12.5 mg/kg/injection, schedule: Q01DX009 (ip), vehicle: saline
[19] = dose: 25.0 mg/kg/injection, schedule: Q01DX009 (ip), vehicle: saline
[20] = dose: 100.0 mg/kg/injection, schedule: Q01DX009 (ip), vehicle: saline
[21] = dose: 200.0 mg/kg/injection, schedule: Q01DX009 (ip), vehicle: saline

CCC1([N+](=O)[O-])CN(C)CC2CCCCN2C1 (centres undefined)
T/C (dose: 25.0 mg/kg/injection, schedule: Q04DX002 (ip), vehicle: water): 95 % of control
T/C (dose: 50.0 mg/kg/injection, schedule: Q04DX002 (ip), vehicle: water): 101 % of control
T/C [1]: 100 % of control
T/C (dose: 100.0 mg/kg/injection, schedule: Q04DX002 (ip), vehicle: water): 103 % of control

O=C(O)CNc1ncnc2c1CCc1ccccc1-2
T/C [1]: 100 % of control
T/C (dose: 200.0 mg/kg/injection, schedule: Q04DX002 (ip), vehicle: saline): 99 % of control
T/C (dose: 400.0 mg/kg/injection, schedule: Q04DX002 (ip), vehicle: saline): 91 % of control

S=C(Nc1ccccc1)P(C(=S)Nc1ccccc1)C1CCCCC1
T/C [2]: 108 % of control
T/C [3]: 101 % of control
T/C (dose: 200.0 mg/kg/injection, schedule: Q01DX005 (ip), vehicle: Klucel (hydroxypropylcellulose) (HPC)): 99 % of control

CN(C)CCN(C)CC(C)(C)C(=O)/C=C/c1ccccc1
T/C [4]: 106 % of control
T/C [5]: 107 % of control

CCOP(=O)(N1CC1(C)C)N1CC1(C)C (centres undefined)
T/C (dose: 5.0 mg/kg/injection, schedule: Q01DX009 (ip), vehicle: saline): 109 % of control
T/C (dose: 20.0 mg/kg/injection, schedule: Q01DX009 (ip), vehicle: saline): 159 % of control
T/C (dose: 30.0 mg/kg/injection, schedule: Q01DX009 (ip), vehicle: saline): 194 % of control
T/C [6]: 252 % of control

Cc1ccc(C=C(C#N)C#N)o1
T/C [7]: 102 % of control
T/C [8]: 105 % of control

CN=C(Nc1ccccn1)c1ccc(NC(=O)c2ccc(C(=O)Nc3ccc(C(=NC)Nc4ccccn4)cc3)cc2)cc1
T/C [2]: 107 % of control
T/C [3]: 110 % of control

C=CC(C1=CC(=O)C(OC)=CC1=O)c1ccccc1 (centres undefined)
T/C [9]: 101 % of control
T/C (dose: 5.0 mg/kg/injection, schedule: Q01DX009 (ip), vehicle: saline with Tween-80): 103 % of control
T/C (dose: 10.0 mg/kg/injection, schedule: Q01DX009 (ip), vehicle: saline with Tween-80): 102 % of control

CCCCCCCCCCCCCCOc1ccc(C(C)=O)o1
T/C [10]: 95 % of control
T/C [11]: 100 % of control

O=C1NC(O)c2cc(F)ccc2O1 (centres undefined)
T/C [12]: 104 % of control
T/C [13]: 105 % of control and 110 % of control
T/C [14]: 111 % of control and 115 % of control
T/C [15]: 111 % of control

[O-][n+]1ccccc1C(O)CSc1ccccc1 (centres undefined)
T/C [10]: 100 % of control
T/C [16]: 101 % of control
T/C [11]: 100 % of control

c1ccc2c(CC3NCCN3)cccc2c1
T/C [17]: 100 % of control
T/C [18]: 100 % of control
T/C [19]: 92 % of control

C=C1C(=O)OC2C[C@]3(C)C(CC12)C(=C)C(O)C[C@@H]3OC(=O)C(C)CC (some centres undefined)
T/C [13]: 105 % of control
T/C [14]: 103 % of control
T/C [15]: 111 % of control

O=C(/C=C\c1ccc([N+](=O)[O-])cc1)c1ccccc(=O)c1O
T/C (dose: 12.5 mg/kg/injection, schedule: Q01DX001 (ip), vehicle: Klucel (hydroxypropylcellulose) (HPC)): 95 % of control
T/C (dose: 25.0 mg/kg/injection, schedule: Q01DX001 (ip), vehicle: Klucel (hydroxypropylcellulose) (HPC)): 100 % of control
T/C (dose: 50.0 mg/kg/injection, schedule: Q01DX001 (ip), vehicle: Klucel (hydroxypropylcellulose) (HPC)): 99 % of control
T/C (dose: 100.0 mg/kg/injection, schedule: Q01DX001 (ip), vehicle: Klucel (hydroxypropylcellulose) (HPC)): 98 % of control

C/C(N=NC(=S)N1CCCCC1)=C1\C=CC=CN1O
T/C [13]: 106 % of control
T/C [14]: 98 % of control
T/C [15]: 105 % of control

O=C(O)C(CS(=O)(=O)O)Nc1ncnc2nc[nH]c12 (centres undefined)
T/C [20]: 100 % of control
T/C [21]: 100 % of control
T/C (dose: 400.0 mg/kg/injection, schedule: Q01DX009 (ip), vehicle: saline): 109 % of control

O=C1C(c2ccccc2)SC(=S)N1c1ccccc1 (centres undefined)
T/C [6]: 105 % of control
T/C [20]: 92 % of control
T/C [21]: 89 % of control

OCC(O)C(O)C(O)/C=N\Nc1ccccc1 (centres undefined)
T/C [6]: 100 % of control
T/C [20]: 114 % of control

CCCCCCC(=O)CC1(C(=O)OC)NC(=S)NC(=O)C1C#N (centres undefined)
T/C (dose: 60.0 mg/kg/injection, schedule: Q01DX005 (ip), vehicle: Klucel (hydroxypropylcellulose) (HPC)): 100 % of control
T/C (dose: 120.0 mg/kg/injection, schedule: Q01DX005 (ip), vehicle: Klucel (hydroxypropylcellulose) (HPC)): 103 % of control
T/C (dose: 240.0 mg/kg/injection, schedule: Q01DX005 (ip), vehicle: Klucel (hydroxypropylcellulose) (HPC)): 97 % of control

O=C(N/N=C/c1ccccc1O)c1ccccc1-n1cccc1
T/C [10]: 95 % of control
T/C [16]: 104 % of control
T/C [11]: 94 % of control

CCCCCCC1(/C=C\c2ccc(Cl)cc2Cl)OCCO1
T/C (dose: 50.0 mg/kg/injection, schedule: Q01DX009 (ip), vehicle: Klucel (hydroxypropylcellulose) (HPC)): 103 % of control
T/C (dose: 100.0 mg/kg/injection, schedule: Q01DX009 (ip), vehicle: Klucel (hydroxypropylcellulose) (HPC)): 110 % of control
T/C (dose: 200.0 mg/kg/injection, schedule: Q01DX009 (ip), vehicle: Klucel (hydroxypropylcellulose) (HPC)): 101 % of control

CC(C)N(CC#CCO)CCO
T/C [4]: 99 % of control
T/C [5]: 100 % of control
T/C (dose: 240.0 mg/kg/injection, schedule: Q01DX005 (ip), vehicle: saline): 99 % of control

CC(=O)C(C(C)=O)[N+](=O)[O-].CC(=O)C(C(C)=O)[N+](=O)[O-].[Cu]
T/C (dose: 6.25 mg/kg/injection, schedule: Q01DX005 (ip), vehicle: saline with Tween-80): 100 % of control
T/C (dose: 12.5 mg/kg/injection, schedule: Q01DX005 (ip), vehicle: saline with Tween-80): 105 % of control

O=C(Oc1ccc[nH]c1=O)c1cccc(C(F)(F)F)c1
T/C (dose: 12.5 mg/kg/injection, schedule: Q01DX009 (ip), vehicle: distilled water + Tween-80): 100 % of control
T/C (dose: 25.0 mg/kg/injection, schedule: Q01DX009 (ip), vehicle: distilled water + Tween-80): 100 % of control
T/C (dose: 50.0 mg/kg/injection, schedule: Q01DX009 (ip), vehicle: distilled water + Tween-80): 102 % of control
T/C (dose: 100.0 mg/kg/injection, schedule: Q01DX009 (ip), vehicle: distilled water + Tween-80): 96 % of control
T/C (dose: 200.0 mg/kg/injection, schedule: Q01DX009 (ip), vehicle: distilled water + Tween-80): 90 % of control

COc1c(C)c(O)c2c(c1O)/C(=C/N=NC(N)=S)C(Cl)=N2
T/C (dose: 100.0 mg/kg/injection, schedule: Q01DX001 (ip), vehicle: saline with Tween-80): 103 % of control
T/C (dose: 200.0 mg/kg/injection, schedule: Q01DX001 (ip), vehicle: saline with Tween-80): 103 % of control
T/C (dose: 400.0 mg/kg/injection, schedule: Q01DX001 (ip), vehicle: saline with Tween-80): 96 % of control

O=C1C=C(SCCO)C(=O)c2ccccc21
T/C (dose: 0.62 mg/kg/injection, schedule: Q01DX009 (ip), vehicle: saline with Tween-80): 100 % of control
T/C (dose: 1.25 mg/kg/injection, schedule: Q01DX009 (ip), vehicle: saline with Tween-80): 100 % of control
T/C [9]: 95 % of control

O=C1C[N+]2(CCCCC2)c2ccc(Cl)cc2N1
T/C [17]: 104 % of control
T/C (dose: 6.25 mg/kg/injection, schedule: Q04DX003 (ip), vehicle: saline): 100 % of control
T/C [18]: 109 % of control
T/C (dose: 12.5 mg/kg/injection, schedule: Q04DX003 (ip), vehicle: saline): 104 % of control
T/C [19]: 104 % of control
T/C (dose: 25.0 mg/kg/injection, schedule: Q04DX003 (ip), vehicle: saline): 100 % of control

O=C1C(CBr)(CBr)CCC12CN=C(Br)C2 (centres undefined)
T/C [13]: 100 % of control
T/C [14]: 98 % of control
T/C [15]: 100 % of control

CCOc1ccc(C(C)c2cc3c(cc2OCC)OCO3)cc1 (centres undefined)
T/C [12]: 120 % of control
T/C [15]: 157 % of control

CCN(CC)c1ccc2cc(S(=O)(=O)c3ccccc3)c(=O)oc2c1
T/C [7]: 91 % of control
T/C [8]: 86 % of control

COc1cc(-c2nn3c(C)c(-c4ccccc4)nc3s2)cc(OC)c1OC
T/C [7]: 101 % of control
T/C [8]: 92 % of control
T/C (dose: 240.0 mg/kg/injection, schedule: Q01DX005 (ip), vehicle: saline with Tween-80): 102 % of control
